According to US6737383B1, “Herbicidal oxadiazolidines” (priority 1999, dated 2004):

Tests used:
giant foxtail = test: Test B pre/postemergence giant foxtail; assay type: in vivo, Setaria faberii
Outline: (§1)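 Test chemicals in a non-phytotoxic solvent mixture with surfactant were sprayed preemergence onto planted seeds and postemergence onto plants 2 to 18 cm tall (1- to 4-leaf stage). After twelve to sixteen days in a greenhouse, injury was visually rated against untreated controls from 0 (no effect) to 10 (complete control).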

morningglory = test: Test B pre/postemergence morningglory; assay type: in vivo, Ipomoea hederacea
Outline: as §1

pigweed = test: Test B pre/postemergence pigweed; assay type: in vivo, Amaranthus retroflexus
Outline: as §1

rape = test: Test B pre/postemergence rape; assay type: in vivo, Brassica napus
Outline: as §1

[1] = Postemergence, Rate 250 g/ha, scale 0 to 10
[2] = Preemergence, Rate 62 g/ha, scale of 0 to 10 where 0 is no effect and 10 is complete control
[3] = Preemergence, Rate 125 g/ha, scale of 0 to 10 where 0 is no effect and 10 is complete control
[4] = Preemergence, Rate 250 g/ha, scale 0 to 10, 0 is no effect, 10 is complete control
[5] = Preemergence, Rate 500 g/ha, scale 0 to 10, 0 is no effect, 10 is complete control
[6] = Rate 62 g/ha, Postemergence, scale 0 to 10 (0 no effect, 10 complete control)
[7] = Rate 125 g/ha, Postemergence, scale 0 to 10, 0 is no effect, 10 is complete control
[8] = Postemergence, Rate 125 g/ha, scale of 0 to 10 where 0 is no effect and 10 is complete control
[9] = Preemergence, Rate 125 g/ha, 0 is no effect, 10 is complete control
[10] = Preemergence, Rate 500 g/ha, scale 0 to 10 (0 no effect, 10 complete control)
[11] = Rate 62 g/ha, Postemergence, scale of 0 to 10 where 0 is no effect and 10 is complete control
[12] = Rate 250 g/ha, Postemergence, scale 0 to 10, 0 is no effect, 10 is complete control
[13] = Rate 500 g/ha, Postemergence, scale 0 to 10

CC(C)N(C(=O)n1oc(=O)n(COC(=O)C(C)(C)C)c1=O)c1ccc(F)cc1 [Compound 462]
0: Giant foxtail plant response rating (giant foxtail; [1]) | Giant foxtail plant response rating (giant foxtail; Postemergence, Rate 500 g/ha, scale of 0 to 10 where 0 is no effect and 10 is complete control) | Plant response rating, Giant foxtail (giant foxtail; [2]) | Plant response rating, Giant foxtail (giant foxtail; [3]) | Giant foxtail plant response rating (giant foxtail; [4]) | Giant foxtail plant response rating (giant foxtail; [5]) | Giant foxtail plant response rating (giant foxtail; [6]) | Giant foxtail plant response rating (giant foxtail; [7]) | Morningglory plant response rating (morningglory; [1]) | Plant response rating, Morningglory (morningglory; [2]) | Plant response rating, Morningglory (morningglory; [3]) | Morningglory plant response rating (morningglory; [4]) | Morningglory plant response rating (morningglory; [5]) | Morningglory plant response rating (morningglory; [6]) | Morningglory plant response rating (morningglory; [7]) | Redroot pigweed plant response rating (pigweed; [1]) | Plant response rating, Redroot pigweed (pigweed; [2]) | Plant response rating, Redroot pigweed (pigweed; [3]) | Redroot pigweed plant response rating (pigweed; [4]) | Redroot pigweed plant response rating (pigweed; [5]) | Redroot pigweed plant response rating (pigweed; [6]) | Redroot pigweed plant response rating (pigweed; [7]) | Rape plant response rating (rape; [1]) | Plant response rating, Rape (rape; [2]) | Plant response rating, Rape (rape; [3]) | Rape plant response rating (rape; [4]) | Rape plant response rating (rape; [5]) | Rape plant response rating (rape; [6]) | Rape plant response rating (rape; [7])

CCN(Cc1ccccc1)C(=O)n1oc(=O)n(C(C)C)c1=O [Compound 166]
3: Giant foxtail plant response rating (giant foxtail; [2]) | Redroot pigweed plant response rating (pigweed; [13])
7: Giant foxtail plant response rating (giant foxtail; [10])
1: Plant response rating, Giant foxtail (giant foxtail; [12]) | Morningglory plant response rating (morningglory; [8]) | Morningglory plant response rating (morningglory; [11])
0: Giant foxtail plant response rating (giant foxtail; [8]) | Giant foxtail plant response rating (giant foxtail; [11]) | Morningglory plant response rating (morningglory; [2]) | Morningglory plant response rating (0 to 10 scale) (morningglory; [9]) | Morningglory plant response rating (morningglory; [4]) | Morningglory plant response rating (morningglory; [10]) | Redroot pigweed plant response rating (pigweed; [8]) | Redroot pigweed plant response rating (pigweed; [2]) | Redroot pigweed plant response rating (0 to 10 scale) (pigweed; [9]) | Redroot pigweed plant response rating (pigweed; [4]) | Redroot pigweed plant response rating (pigweed; [10]) | Redroot pigweed plant response rating (pigweed; [11]) | Rape plant response rating (rape; [8]) | Rape plant response rating (rape; [2]) | Rape plant response rating (0 to 10 scale) (rape; [9]) | Rape plant response rating (rape; [4]) | Rape plant response rating (rape; [10]) | Rape plant response rating (rape; [11]) | Plant response rating, Rape (rape; [12])
5: Giant foxtail plant response rating (0 to 10 scale) (giant foxtail; [9]) | Giant foxtail plant response rating (giant foxtail; [4])
4: Giant foxtail plant response rating (giant foxtail; [13])
2: Plant response rating, Morningglory (morningglory; [12]) | Morningglory plant response rating (morningglory; [13]) | Plant response rating, Redroot pigweed (pigweed; [12])
